These molecules were tested against T1, Full-length, GST-tagged, human CaMKIIδ (Homo sapiens, UniProt Q13557) (assay: CaMKIIδ binding assay (TR-FRET with BODIPY-labeled probe ligand)). Settings: CaMKIIδ binding assay, results of Table 2.
T1 construct: Full-Length, Glutathione-S-Transferase(GST)-Tagged, Human CaMKIIδ was purchased from Carna Biosciences; purchased Carna Biosciences 02-111
T1 sequence (Q13557 1-478 isoform Q13557-12): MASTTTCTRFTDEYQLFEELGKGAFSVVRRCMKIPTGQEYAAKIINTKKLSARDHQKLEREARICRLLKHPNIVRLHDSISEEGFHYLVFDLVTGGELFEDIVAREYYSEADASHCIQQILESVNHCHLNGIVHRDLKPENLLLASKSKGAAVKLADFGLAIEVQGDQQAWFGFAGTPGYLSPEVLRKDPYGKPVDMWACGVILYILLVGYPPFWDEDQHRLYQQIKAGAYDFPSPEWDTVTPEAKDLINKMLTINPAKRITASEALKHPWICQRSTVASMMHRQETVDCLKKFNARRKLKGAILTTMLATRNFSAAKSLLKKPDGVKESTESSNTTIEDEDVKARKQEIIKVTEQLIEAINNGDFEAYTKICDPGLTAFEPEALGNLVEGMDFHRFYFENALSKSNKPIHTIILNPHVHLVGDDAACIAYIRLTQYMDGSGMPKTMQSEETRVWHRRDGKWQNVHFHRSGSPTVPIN
Outline: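 TR-FRET probe-displacement binding: 0.5 nM GST-CaMKIIδ with 10 μg/mL calmodulin, 1 mM CaCl2, 0.21 nM Tb-anti-GST Ab and 300 nM BODIPY probe in HEPES pH 7.6 buffer. Eight-point 4-fold dilutions, 1 hr at room temperature. IC50 from logistic fit; 100% inhibition defined by 3 μM parent compound.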
For `C[C@@H](Cn1cnnn1)Oc1cc(-c2cnc(Nc3cn(C4CCN(CC5COC5)CC4)nc3C(F)(F)F)nc2)ccc1Cl` [Example 489, (S)-5-(3-((1-(1H-tetrazol-1-yl)propan-2-yl)oxy)-4-chlorophenyl)-N-(1-(1-(oxetan-3-ylmethyl)piperidin-4-yl)-3-(trifluoromethyl)-1H-pyrazol-4-yl)pyrimidin-2-amine], the IC50 was less than 10 nM. In the case of `COc1cc2c(cc1Nc1ncc(-c3ccc(C#N)c(O[C@@H](C)Cn4cncn4)c3)cn1)C(=O)N(C1CCC1)C2` [Example 443, (S)-2-((1-(1H-1,2,4-triazol-1-yl)propan-2-yl)oxy)-4-(2-((2-cyclobutyl-6-methoxy-3-oxoisoindolin-5-yl)amino)pyrimidin-5-yl)benzonitrile], the IC50 is reported as 10 to 100 nM. `COc1cc2c(cc1Nc1ncc(-c3ccc(Cl)c(O[C@@H](C)Cn4cnnn4)c3)cn1)CCN(c1ccnc(C)n1)C2` [Example 505, (S)-N-(5-(3-((1-(1H-tetrazol-1-yl)propan-2-yl)oxy)-4-chlorophenyl)pyrimidin-2-yl)-7-methoxy-2-(2-methylpyrimidin-4-yl)-1,2,3,4-tetrahydroisoquinolin-6-amine] gave an IC50 of 10 to 100 nM. For `COc1cc2c(cc1Nc1ncc(-c3ccc(Cl)c(O[C@@H](C)Cn4cnnn4)c3)cn1)CCN(C1COC1)CC2` [Example 447, (S)-N-(5-(3-((1-(1H-tetrazol-1-yl)propan-2-yl)oxy)-4-chlorophenyl)pyrimidin-2-yl)-8-methoxy-3-(oxetan-3-yl)-2,3,4,5-tetrahydro-1H-benzo[d]azepin-7-amine], the IC50 was less than 10 nM. Molecule `COc1ccc(CN2CCOCC2)cc1Nc1ncc(-c2ccc(Cl)c(O[C@@H](C)Cn3cnnn3)c2)cn1` [Example 448, (S)-5-(3-((1-(1H-tetrazol-1-yl)propan-2-yl)oxy)-4-chlorophenyl)-N-(2-methoxy-5-(morpholinomethyl)phenyl)pyrimidin-2-amine] has an IC50 of 10 to 100 nM. `COc1cc2c(cc1Nc1ncc(-c3ccc(Cl)c(O[C@@H](C)Cn4cnnn4)c3)cn1)CCN(CC1COC1)C2` [Example 475, (S)-N-(5-(3-((1-(1H-tetrazol-1-yl)propan-2-yl)oxy)-4-chlorophenyl)pyrimidin-2-yl)-7-methoxy-2-(oxetan-3-ylmethyl)-1,2,3,4-tetrahydroisoquinolin-6-amine] was tested, and the IC50 was less than 10 nM.

Same assay, conditions: CaMKIIδ binding assay; activity class per Table 2
With `C[C@@H](Cn1cnnn1)Oc1cc(-c2cnc(Nc3cn(C4CC5(C4)CN(C4CCCOCC4)C5)nc3OCC(F)(F)F)nc2)ccc1Cl` (stereo partly drawn) [Example 981, 5-(3-(((S)-1-(1H-tetrazol-1-yl)propan-2-yl)oxy)-4-chlorophenyl)-N-(1-(2-(oxepan-4-yl)-2-azaspiro[3.3]heptan-6-yl)-3-(2,2,2-trifluoroethoxy)-1H-pyrazol-4-yl)pyrimidin-2-amine] the IC50 was less than 10 nM. Work on `C[C@@H](Cn1cnnn1)Oc1cc(-c2cnc(Nc3cn(C(C)(C)C(=O)O)nc3OCC(F)(F)F)nc2)ccc1Cl` [Example 889, (S)-2-(4-((5-(3-((1-(1H-tetrazol-1-yl)propan-2-yl)oxy)-4-chlorophenyl)pyrimidin-2-yl)amino)-3-(2,2,2-trifluoroethoxy)-1H-pyrazol-1-yl)-2-methylpropanoic acid] yielded an IC50 of 10 to 100 nM. `C[C@@H](Cn1cnnn1)Oc1cc(-c2cnc(Nc3cn([C@@H]4CN(C5CCC5)CC[C@H]4O)nc3C(F)(F)F)nc2)ccc1Cl` (mixture of isomers) [Example 904, trans-3-(4-((5-(3-(((S)-1-(1H-tetrazol-1-yl)propan-2-yl)oxy)-4-chlorophenyl)pyrimidin-2-yl)amino)-3-(trifluoromethyl)-1H-pyrazol-1-yl)-1-cyclobutylpiperidin-4-ol] showed an IC50 of less than 10 nM. `CC(Cn1cnnn1)Oc1cc(-c2cnc(Nc3cn(CC4(O)CCC(N5CCOCC5)CC4)nc3OCC(F)(F)F)nc2)ccc1Cl` [Example 911, trans-1-((4-((5-(3-(((S)-1-(1H-tetrazol-1-yl)propan-2-yl)oxy)-4-chlorophenyl)pyrimidin-2-yl)amino)-3-(2,2,2-trifluoroethoxy)-1H-pyrazol-1-yl)methyl)-4-morpholinocyclohexan-1-ol] was tested, and the IC50 was less than 10 nM. `[2H]C1(N2CC3(CC(n4cc(Nc5ncc(-c6ccc(Cl)c(O[C@@H](C)Cn7cnnn7)c6)cn5)c(OCC(F)(F)F)n4)C3)C2)CCOCC1` [Example 944, 5-(4-chloro-3-{[(2S)-1-(1H-tetrazol-1-yl)propan-2-yl]oxy}phenyl)-N-(1-{2-[(4-^2H)tetrahydro-2H-pyran-4-yl]-2-azaspiro[3.3]heptan-6-yl}-3-(2,2,2-trifluoroethoxy)-1H-pyrazol-4-yl)pyrimidin-2-amine] was tested, and the IC50 was less than 10 nM. In the case of `C[C@@H](Cn1cnnn1)Oc1cc(-c2cnc(Nc3cn(C4CC5(C4)CN(C4CCC4)C5)nc3OC3COC3)nc2)ccc1Cl` [Example 945, (S)-5-(3-((1-(1H-tetrazol-1-yl)propan-2-yl)oxy)-4-chlorophenyl)-N-(1-(2-cyclobutyl-2-azaspiro[3.3]heptan-6-yl)-3-(oxetan-3-yloxy)-1H-pyrazol-4-yl)pyrimidin-2-amine], the IC50 is reported as less than 10 nM. `C[C@@H](Cn1cnnn1)Oc1cc(-c2cnc(Nc3cn(C(C)(C)C(=O)N4CCOCC4)nc3OCC(F)(F)F)nc2)ccc1Cl` [Example 895, (S)-2-(4-((5-(3-((1-(1H-tetrazol-1-yl)propan-2-yl)oxy)-4-chlorophenyl)pyrimidin-2-yl)amino)-3-(2,2,2-trifluoroethoxy)-1H-pyrazol-1-yl)-2-methyl-1-morpholinopropan-1-one] showed an IC50 of 10 to 100 nM. Molecule `C[C@@H](Cn1cnnn1)Oc1cc(-c2cnc(Nc3cn(CC4(O)CCOCC4)nc3OCC(F)(F)F)nc2)ccc1Cl` [Example 886, (S)-4-((4-((5-(3-((1-(1H-tetrazol-1-yl)propan-2-yl)oxy)-4-chlorophenyl)pyrimidin-2-yl)amino)-3-(2,2,2-trifluoroethoxy)-1H-pyrazol-1-yl)methyl)tetrahydro-2H-pyran-4-ol] has an IC50 of less than 10 nM. Molecule `C[C@@H](Cn1cnnn1)Oc1cc(-c2cnc(Nc3cn(C4CC5(C4)CN(C(=O)OC(C)(C)C)C5)nc3OCC(F)(F)F)nc2)ccc1C(F)F` [Example 948, tert-butyl (S)-6-(4-((5-(3-((1-(1H-tetrazol-1-yl)propan-2-yl)oxy)-4-(difluoromethyl)phenyl)pyrimidin-2-yl)amino)-3-(2,2,2-trifluoroethoxy)-1H-pyrazol-1-yl)-2-azaspiro[3.3]heptane-2-carboxylate] has an IC50 of no less than 100 nM.

Same assay, conditions: Table 2; CaMKIIδ binding assay, activity given as class A/B/C
`COc1ncc(N2CCN(C3CCOCC3)CC2)cc1Nc1ncc(-c2ccc(Cl)c(O[C@@H](C)Cn3cnnn3)c2)cn1` [Example 770, (S)-5-(3-((1-(1H-tetrazol-1-yl)propan-2-yl)oxy)-4-chlorophenyl)-N-(2-methoxy-5-(4-(tetrahydro-2H-pyran-4-yl)piperazin-1-yl)pyridin-3-yl)pyrimidin-2-amine] gave an IC50 of less than 10 nM. Work on `C[C@@H](Cn1cnnn1)Oc1cc(-c2cnc(Nc3cn(C4CCN(C5CC5)CC4)nc3OCC(F)(F)F)nc2)ccc1Cl` [Example 794, (S)-5-(3-((1-(1H-tetrazol-1-yl)propan-2-yl)oxy)-4-chlorophenyl)-N-(1-(1-cyclopropylpiperidin-4-yl)-3-(2,2,2-trifluoroethoxy)-1H-pyrazol-4-yl)pyrimidin-2-amine] yielded an IC50 of less than 10 nM. With `C[C@@H](Cn1cnnn1)Oc1cc(-c2cnc(Nc3n[nH]cc3Cl)nc2)ccc1Cl` [Example 749, (S)-5-(3-((1-(1H-tetrazol-1-yl)propan-2-yl)oxy)-4-chlorophenyl)-N-(4-chloro-1H-pyrazol-3-yl)pyrimidin-2-amine] the IC50 was 10 to 100 nM. In the case of `C[C@@H](Cn1cnnn1)Oc1cc(-c2cnc(Nc3cn([C@H]4CC[C@H](N5CC(O)(C(F)(F)F)C5)CC4)nc3C(F)(F)F)nc2)ccc1Cl` [Example 857, 1-(trans-4-(4-((5-(3-(((S)-1-(1H-tetrazol-1-yl)propan-2-yl)oxy)-4-chlorophenyl)pyrimidin-2-yl)amino)-3-(trifluoromethyl)-1H-pyrazol-1-yl)cyclohexyl)-3-(trifluoromethyl)azetidin-3-ol], the IC50 is reported as less than 10 nM. Molecule `C[C@@H](Cn1cnnn1)Oc1cc(-c2cnc(Nc3cn(CC4(O)CCC4)nc3C(F)(F)F)nc2)ccc1F` [Example 858, (S)-1-((4-((5-(3-((1-(1H-tetrazol-1-yl)propan-2-yl)oxy)-4-fluorophenyl)pyrimidin-2-yl)amino)-3-(trifluoromethyl)-1H-pyrazol-1-yl)methyl)cyclobutan-1-ol] has an IC50 of 10 to 100 nM. Work on `C[C@@H](Cn1cnnn1)Oc1cc(-c2cnc(Nc3cn([C@H]4CC[C@@H](N5CCOCC5)CC4)nc3C(F)(F)F)nc2)ccc1Cl` [Example 781, 5-(3-(((S)-1-(1H-tetrazol-1-yl)propan-2-yl)oxy)-4-chlorophenyl)-N-(1-(cis-4-morpholinocyclohexyl)-3-(trifluoromethyl)-1H-pyrazol-4-yl)pyrimidin-2-amine] yielded an IC50 of less than 10 nM.

Same assay, conditions: Table 2; activity class for CaMKIIδ
For `CC(C#N)n1cc(Nc2ncc(-c3ccc(Cl)c(O[C@@H](C)Cn4cnnn4)c3)cn2)c(C(F)(F)F)n1` (stereo partly drawn) [Example 716, 2-(4-((5-(3-(((S)-1-(1H-tetrazol-1-yl)propan-2-yl)oxy)-4-chlorophenyl)pyrimidin-2-yl)amino)-3-(trifluoromethyl)-1H-pyrazol-1-yl)propanenitrile], the IC50 was 10 to 100 nM. In the case of `COc1nc(N2CCCNCC2)ccc1Nc1ncc(-c2ccc(Cl)c(O[C@@H](C)Cn3cnnn3)c2)cn1` [Example 666, (S)-N-(6-(1,4-diazepan-1-yl)-2-methoxypyridin-3-yl)-5-(3-((1-(1H-tetrazol-1-yl)propan-2-yl)oxy)-4-chlorophenyl)pyrimidin-2-amine], the IC50 is reported as less than 10 nM. `COc1cc2c(cc1Nc1ncc(-c3ccc(C#N)c(O[C@@H](C)Cn4cnnn4)c3)cn1)N(C(=O)C(F)(F)F)CCC2` [Example 585, (S)-2-((1-(1H-tetrazol-1-yl)propan-2-yl)oxy)-4-(2-((6-methoxy-1-(2,2,2-trifluoroacetyl)-1,2,3,4-tetrahydroquinolin-7-yl)amino)pyrimidin-5-yl)benzonitrile] was tested, and the IC50 was 10 to 100 nM.
